Experiments:
human TLR7 = target: T1, human TLR7 (Homo sapiens, UniProt Q9NYK1); test: HEK293-Blue-hTLR-7 cells assay (SEAP reporter); assay type: cell-based; conditions: 20 hours incubation
T1 sequence (Q9NYK1 27-1049): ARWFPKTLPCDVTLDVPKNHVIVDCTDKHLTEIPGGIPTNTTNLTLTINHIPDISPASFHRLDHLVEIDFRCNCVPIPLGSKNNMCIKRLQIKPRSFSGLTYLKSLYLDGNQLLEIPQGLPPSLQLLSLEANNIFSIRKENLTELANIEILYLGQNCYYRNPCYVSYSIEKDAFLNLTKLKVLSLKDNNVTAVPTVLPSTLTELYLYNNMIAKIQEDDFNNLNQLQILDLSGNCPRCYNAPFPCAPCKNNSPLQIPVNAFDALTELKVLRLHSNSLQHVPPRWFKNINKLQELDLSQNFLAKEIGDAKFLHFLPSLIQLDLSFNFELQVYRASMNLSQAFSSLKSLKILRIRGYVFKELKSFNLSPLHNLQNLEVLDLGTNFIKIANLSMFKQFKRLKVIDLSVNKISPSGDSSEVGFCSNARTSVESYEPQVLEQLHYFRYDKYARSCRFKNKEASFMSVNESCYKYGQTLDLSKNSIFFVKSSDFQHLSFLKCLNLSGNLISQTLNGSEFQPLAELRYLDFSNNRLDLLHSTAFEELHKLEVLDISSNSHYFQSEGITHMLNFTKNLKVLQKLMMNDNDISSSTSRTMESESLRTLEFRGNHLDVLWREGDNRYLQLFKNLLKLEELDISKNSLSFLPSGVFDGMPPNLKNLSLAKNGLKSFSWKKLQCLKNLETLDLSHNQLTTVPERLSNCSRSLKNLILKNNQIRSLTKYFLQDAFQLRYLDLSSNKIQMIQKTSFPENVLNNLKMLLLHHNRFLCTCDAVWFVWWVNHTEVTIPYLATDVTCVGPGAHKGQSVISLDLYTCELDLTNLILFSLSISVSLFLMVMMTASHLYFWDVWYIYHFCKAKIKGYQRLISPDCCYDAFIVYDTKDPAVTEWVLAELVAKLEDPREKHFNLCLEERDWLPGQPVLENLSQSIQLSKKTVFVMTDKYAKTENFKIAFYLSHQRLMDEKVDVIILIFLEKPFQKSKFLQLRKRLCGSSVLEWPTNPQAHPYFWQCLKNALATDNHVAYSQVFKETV
From the text: A stable HEK293-Blue-hTLR-7 cell line was purchased from InvivoGen (Cat.#: hkb-ht1r7, San Diego, Calif., USA). These cells were designed for studying the stimulation of human TLR7 by monitoring the activation of NF-κB. A SEAP (secreted embryonic alkaline phosphatase) reporter gene was placed under the control of the IFN-β minimal promoter fused to five NF-κB and AP-1-binding sites. The SEAP was induced by activating NF-κB and AP-1 via stimulating HEK-Blue hTLR7 cells with TLR7 ligands. Therefore the reporter expression was regulated by the NF-κB promoter upon stimulation of human TLR7 for 20 hours. The cell culture supernatant SEAP reporter activity was determined using QUANTI-Blue™ kit (Cat.#: rep-qb1, Invivogen, San Diego, Calif., USA) at a wavelength of 640 nm, a detection medium that turns purple/blue in the presence of alkaline phosphatase.
HEK293-Blue-hTLR7 cells were incubated at a density of 250,000˜450,000 cells/mL in a volume of 180 μL in a 96-well plate in Dulbecco's Modified Eagle's medium (DMEM) containing 4.5 g/L glucose, 50 U/mL penicillin, […] streptomycin, […] Normocin, 2 mM L-glutamine, 10% (v/v) heat-inactivated fetal bovine serum for 24 h. Then the HEK293-Blue-hTLR-7 cells were incubated with addition of 20 μL test compound in a serial dilution in the presence of final DMSO at 1% and perform incubation under 37° C. in a CO2 incubator for 20 hours. Then 20 μL of the supernatant from each well was incubated with 180 μL Quanti-blue substrate solution at 37° C. for 2 h and the absorbance was read at 620˜655 nm using a spectrophotometer. The signalling pathway that TLR7 activation leads to downstream NF-κB activation has been widely accepted, and therefore similar reporter assay was also widely used for evaluating TLR7 agonist (Tsuneyasu Kaisho and Takashi Tanaka, Trends in Immunology, Volume 29, Issue 7, July 2008, […]; Hiroaki Hemmi et al, Nature Immunology 3, 196-200 (2002).

murine TLR7 = target: T2, murine TLR7 (Mus musculus, UniProt P58681); test: HEK293-Blue-mTLR7 assay (SEAP reporter); assay type: cell-based; conditions: HEK293-Blue-mTLR7 cells, 20 hours, Quanti-Blue; read-out: EC50 murine TLR7 activation
T2 sequence (P58681 27-1050): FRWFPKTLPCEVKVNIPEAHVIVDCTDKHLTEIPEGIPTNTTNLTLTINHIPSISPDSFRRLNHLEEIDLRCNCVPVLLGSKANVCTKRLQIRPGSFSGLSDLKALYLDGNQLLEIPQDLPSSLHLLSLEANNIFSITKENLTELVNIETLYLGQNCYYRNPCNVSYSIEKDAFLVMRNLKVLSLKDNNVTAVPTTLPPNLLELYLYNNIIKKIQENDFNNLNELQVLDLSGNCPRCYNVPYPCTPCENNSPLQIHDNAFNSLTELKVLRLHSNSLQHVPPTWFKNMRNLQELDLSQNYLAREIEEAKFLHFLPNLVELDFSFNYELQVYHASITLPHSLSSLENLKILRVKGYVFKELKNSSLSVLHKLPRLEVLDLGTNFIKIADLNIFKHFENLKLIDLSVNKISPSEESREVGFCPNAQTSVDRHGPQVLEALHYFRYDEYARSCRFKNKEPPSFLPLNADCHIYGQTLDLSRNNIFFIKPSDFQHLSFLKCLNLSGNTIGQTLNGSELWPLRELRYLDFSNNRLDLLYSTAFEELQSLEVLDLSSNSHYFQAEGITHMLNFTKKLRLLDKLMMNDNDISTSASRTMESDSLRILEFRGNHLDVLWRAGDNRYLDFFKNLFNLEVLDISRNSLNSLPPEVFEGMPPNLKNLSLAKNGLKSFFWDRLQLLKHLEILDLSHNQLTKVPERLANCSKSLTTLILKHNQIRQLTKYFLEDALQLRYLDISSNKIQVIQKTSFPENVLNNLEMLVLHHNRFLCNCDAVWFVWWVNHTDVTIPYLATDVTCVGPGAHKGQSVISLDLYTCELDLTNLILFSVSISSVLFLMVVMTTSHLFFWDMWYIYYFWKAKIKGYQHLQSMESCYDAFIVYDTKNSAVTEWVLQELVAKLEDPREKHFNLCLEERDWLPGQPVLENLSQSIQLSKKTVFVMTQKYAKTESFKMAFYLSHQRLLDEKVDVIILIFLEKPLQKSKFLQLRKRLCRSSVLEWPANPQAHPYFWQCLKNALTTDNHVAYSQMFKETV
Description: The potency of the TLR7 agonist Example 4-A was assessed in murine TLR7 activation using a stable HEK293-Blue-mTLR7 cell line purchased from InvivoGen (Cat.#: hkb-mt1r7, San Diego, Calif., USA). Similar to the HEK293-Blue-hTLR7 as described in Example 26, the HEK293-Blue-mTLR7 was designed for studying the stimulation of murine TLR7 by monitoring the activation of NF-κB. A SEAP reporter gene was placed under the control of the IFN-β minimal promoter fused to five NF-κB and AP-1-binding sites. SEAP expression was induced by the activation of NF-κB and AP-1 upon stimulation of murine TLR7 with TLR7 ligands. SEAP expression in cell culture supernatant was determined using QUANTI-Blue™ kit (Cat.#: rep-qb1, Invivogen, San Diego, Ca, USA) at a wavelength of 640 nm, a detection medium that turns purple/blue in the presence of alkaline phosphatase.
HEK293-Blue-mTLR7 cells were incubated at a density of 250,000˜450,000 cells/mL in a volume of 180 μL in a 96-well plate in Dulbecco's Modified Eagle's medium (DMEM) containing 4.5 g/L glucose, 50 U/mL penicillin, […], […], 2 mM L-glutamine, 10% (v/v) heat-inactivated fetal bovine serum for 24 h. […] Then 20 μL of the supernatant from each well was incubated with 180 μl Quanti-blue substrate solution at 37° C. for 2 hours and the absorbance was read at 640 nm using a spectrophotometer.

`Nc1nc2c(sc(=O)n2[C@H]2CS[C@@H](C(O)C3CC3)O2)c(=O)[nH]1` (single isomer, unassigned) [Example 4-A] showed an EC50 (human TLR7) of 7.9 µM and an EC50 (murine TLR7) of 7.8 µM.

Source: patent publication US10000512B2, “Compounds for the treatment of infectious diseases” (Hoffmann-La Roche Inc., priority 2014, dated 2018)
